Reference: paper PMC8286840, “Identifying SARS-CoV-2 antiviral compounds by screening for small molecule inhibitors of Nsp3 papain-like protease” (Biochemical Journal, 2021)
Counter-ions that a name gives are not always drawn. Like-named read-outs stand apart in the source and are kept apart here.

Columns and labels:
[1] = target: T1, SARS-CoV-2 PLpro (nsp3 1564–1878) (Severe acute respiratory syndrome coronavirus 2, UniProt P0DTD1); test: biochemical; set-up: FRET-quenched peptide (Pro3) cleavage by PLpro, 10 min pre-incubation, slope over 20 min, normalised to no-compound control; details: read-out: % of control remaining
[2] = target: T1, SARS-CoV-2 PLpro (nsp3 1564–1878); test: biochemical; set-up: FRET-quenched peptide (Pro3) cleavage by PLpro, 10 min pre-incubation, slope over 20 min, normalised to no-compound control; details: read-out: % of control remaining; remark: listed apart in the source

With `CC[N+](C)(C)Cc1ccccc1Br` [Bretylium tosylate] the remaining activity at 3.75 µM ([1]; Well no.=321, high concentration screen) was 101% and the remaining activity at 1.25 µM ([2]; Well no.=321, low concentration screen) was 103%.
Work on `O=c1ccc2ccc(OCCCCN3CCN(c4cccc5sccc45)CC3)cc2[nH]1` [Brexpiprazole] yielded a remaining activity at 3.75 µM ([1]; Well no.=6473, high concentration screen) of 98.1% and a remaining activity at 1.25 µM ([2]; Well no.=6473, low concentration screen) of 99.5%.
In the case of `CCN[C@H]1CN(CCCOC)S(=O)(=O)c2sc(S(N)(=O)=O)cc21` [Brinzolamide], the remaining activity at 3.75 µM ([1]; Well no.=5028, high concentration screen) was 105% and the remaining activity at 1.25 µM ([2]; Well no.=5028, low concentration screen) was 105%.
For `Cc1cc2c(F)c(Oc3ncnn4cc(OC[C@@H](C)OC(=O)[C@H](C)N)c(C)c34)ccc2[nH]1` [Brivanib alaninate (BMS-582664)], the remaining activity at 3.75 µM ([1]; Well no.=5049, high concentration screen) was 104% and the remaining activity at 1.25 µM ([2]; Well no.=5049, low concentration screen) was 102%.
Compound `O=c1[nH]c(=O)n([C@H]2C[C@H](O)[C@@H](CO)O2)cc1/C=C/Br` [Brivudine] has a remaining activity at 3.75 µM ([1]; Well no.=8845, high concentration screen) of 98.3% and a remaining activity at 1.25 µM ([2]; Well no.=8845, low concentration screen) of 107%.
Work on `CN(Cc1cc(Br)cc(Br)c1N)C1CCCCC1` [Bromhexine] yielded a remaining activity at 3.75 µM ([1]; Well no.=2177, high concentration screen) of 102% and a remaining activity at 1.25 µM ([2]; Well no.=2177, low concentration screen) of 98.4%.
With `C=CCc1ccccc1OCC(O)CNC1(C)CCC(C(C)(C)NC(=O)CBr)CC1` (centres unmarked) [Bromoacetyl alprenolol menthane] the remaining activity at 3.75 µM ([1]; Well no.=275, high concentration screen) was 93.3% and the remaining activity at 1.25 µM ([2]; Well no.=275, low concentration screen) was 91.4%.
`C[N+](C)(C)CCOC(=O)CBr` [Bromoacetylcholine bromide] gave a remaining activity at 3.75 µM ([1]; Well no.=181, high concentration screen) of 98.9% and a remaining activity at 1.25 µM ([2]; Well no.=181, low concentration screen) of 102%.
`CC(C)C[C@H]1C(=O)N2CCC[C@H]2[C@]2(O)O[C@](NC(=O)[C@@H]3C=C4c5cccc6[nH]c(Br)c(c56)C[C@H]4N(C)C3)(C(C)C)C(=O)N12` [Bromocriptine (mesylate)] gave a remaining activity at 3.75 µM ([1]; Well no.=6891, high concentration screen) of 96.2% and a remaining activity at 1.25 µM ([2]; Well no.=6891, low concentration screen) of 97.5%.
Work on `CC(C)C[C@H]1C(=O)N2CCC[C@H]2[C@]2(O)O[C@](NC(=O)[C@@H]3C=C4c5cccc6[nH]c(Br)c(c56)C[C@H]4N(C)C3)(C(C)C)C(=O)N12` [Bromocriptine mesylate] yielded a remaining activity at 3.75 µM ([1]; Well no.=1811, high concentration screen) of 91.6%, a remaining activity at 3.75 µM ([1]; Well no.=3485, high concentration screen) of 101% and a remaining activity at 1.25 µM ([2]; Well no.=1811, low concentration screen) of 92.4%. The remaining activity at 1.25 µM ([2]; Well no.=3485, low concentration screen) was 104%.
With `O=C1O/C(=C/Br)CCC1c1cccc2ccccc12` (centres unmarked) [Bromoenol lactone] the remaining activity at 3.75 µM ([1]; Well no.=310, high concentration screen) was 96.9% and the remaining activity at 1.25 µM ([2]; Well no.=310, low concentration screen) was 93%.
`CN(C)CCC(c1ccc(Br)cc1)c1ccccn1` (centres unmarked) [Brompheniramine (maleate)] was tested, and the remaining activity at 3.75 µM ([1]; Well no.=7377, high concentration screen) was 105% and the remaining activity at 1.25 µM ([2]; Well no.=7377, low concentration screen) was 102%.
`CN(C)CCC(c1ccc(Br)cc1)c1ccccn1` (centres unmarked) [Brompheniramine] gave a remaining activity at 3.75 µM ([1]; Well no.=5292, high concentration screen) of 96.1% and a remaining activity at 1.25 µM ([2]; Well no.=5292, low concentration screen) of 99%.
Compound `COc1cc2c(cc1OC)[C@@]13CC[N+]4([O-])CC5=CCO[C@H]6CC(=O)N2[C@H]1[C@H]6[C@H]5C[C@@H]34` (some centres unmarked) [Brucine-N-oxide] has a remaining activity at 3.75 µM ([1]; Well no.=3270, high concentration screen) of 102% and a remaining activity at 1.25 µM ([2]; Well no.=3270, low concentration screen) of 99.2%.
`CCCC1O[C@@H]2C[C@H]3[C@@H]4CCC5=CC(=O)C=C[C@]5(C)[C@H]4[C@@H](O)C[C@]3(C)[C@]2(C(=O)CO)O1` (some centres unmarked) [Budesonide] showed a remaining activity at 3.75 µM ([1]; Well no.=81, high concentration screen) of 102%, a remaining activity at 3.75 µM ([1]; Well no.=6659, high concentration screen) of 98.7% and a remaining activity at 1.25 µM ([2]; Well no.=81, low concentration screen) of 105%. For the same compound, the remaining activity at 1.25 µM ([2]; Well no.=6659, low concentration screen) was 98.6%.
With `CCCCOc1ccc(CC(=O)NO)cc1` [Bufexamac] the remaining activity at 3.75 µM ([1]; Well no.=5265, high concentration screen) was 99.5% and the remaining activity at 1.25 µM ([2]; Well no.=5265, low concentration screen) was 101%.
`COc1cc(OC)c(C(=O)CCCN2CCCC2)c(OC)c1` [Buflomedil HCl] gave a remaining activity at 3.75 µM ([1]; Well no.=5296, high concentration screen) of 97.4% and a remaining activity at 1.25 µM ([2]; Well no.=5296, low concentration screen) of 101%.
With `CCCCNc1cc(C(=O)O)cc(S(N)(=O)=O)c1Oc1ccccc1` [Bumetanide] the remaining activity at 3.75 µM ([1]; Well no.=29, high concentration screen) was 96.8%, the remaining activity at 3.75 µM ([1]; Well no.=1909, high concentration screen) was 99.1% and the remaining activity at 1.25 µM ([2]; Well no.=29, low concentration screen) was 103%. It also gave a remaining activity at 1.25 µM ([2]; Well no.=1909, low concentration screen) of 100%.
Compound `CCCCN1CCCCC1C(=O)Nc1c(C)cccc1C` (centres unmarked) [Bupivacaine] has a remaining activity at 3.75 µM ([1]; Well no.=2052, high concentration screen) of 103% and a remaining activity at 1.25 µM ([2]; Well no.=2052, low concentration screen) of 105%.
Compound `CC(NC(C)(C)C)C(=O)c1cccc(Cl)c1` (centres unmarked) [Bupropion hydrochloride] has a remaining activity at 3.75 µM ([1]; Well no.=37, high concentration screen) of 100% and a remaining activity at 1.25 µM ([2]; Well no.=37, low concentration screen) of 101%.
`CCNC(=O)[C@@H]1CCCN1C(=O)[C@H](CCCNC(=N)N)NC(=O)[C@H](CC(C)C)NC(=O)[C@@H](COC(C)(C)C)NC(=O)[C@H](Cc1ccc(O)cc1)NC(=O)[C@H](CO)NC(=O)[C@H](Cc1c[nH]c2ccccc12)NC(=O)[C@H](Cc1cnc[nH]1)NC(=O)[C@@H]1CCC(=O)N1` [Buserelin (Acetate)] showed a remaining activity at 3.75 µM ([1]; Well no.=8151, high concentration screen) of 104% and a remaining activity at 1.25 µM ([2]; Well no.=8151, low concentration screen) of 106%.
With `O=C1CC2(CCCC2)CC(=O)N1CCCCN1CCN(c2ncccn2)CC1` [Buspirone (hydrochloride)] the remaining activity at 3.75 µM ([1]; Well no.=8249, high concentration screen) was 99.1% and the remaining activity at 1.25 µM ([2]; Well no.=8249, low concentration screen) was 101%.
`O=C1CC2(CCCC2)CC(=O)N1CCCCN1CCN(c2ncccn2)CC1` [Buspirone hydrochloride] gave a remaining activity at 3.75 µM ([1]; Well no.=319, high concentration screen) of 99.4% and a remaining activity at 1.25 µM ([2]; Well no.=319, low concentration screen) of 98.2%.
Work on `O=C(/C=C/c1ccc(O)c(O)c1)c1ccc(O)cc1O` [Butein] yielded a remaining activity at 3.75 µM ([1]; Well no.=3272, high concentration screen) of 97.5% and a remaining activity at 1.25 µM ([2]; Well no.=3272, low concentration screen) of 96.3%.
`CN(Cc1ccc(C(C)(C)C)cc1)Cc1cccc2ccccc12` [Butenafine HCl] was tested, and the remaining activity at 3.75 µM ([1]; Well no.=5371, high concentration screen) was 97.8% and the remaining activity at 1.25 µM ([2]; Well no.=5371, low concentration screen) was 98.1%.
With `CN(Cc1ccc(C(C)(C)C)cc1)Cc1cccc2ccccc12` [Butenafine] the remaining activity at 3.75 µM ([1]; Well no.=1876, high concentration screen) was 94.3% and the remaining activity at 1.25 µM ([2]; Well no.=1876, low concentration screen) was 97.2%.
`CCCCS(=N)(=O)CCC(N)C(=O)O` (centres unmarked) [Buthionine sulfoximine] was tested, and the remaining activity at 3.75 µM ([1]; Well no.=4086, high concentration screen) was 100% and the remaining activity at 1.25 µM ([2]; Well no.=4086, low concentration screen) was 101%.
In the case of `Clc1ccc(CCC(Cn2ccnc2)Sc2c(Cl)cccc2Cl)cc1` (centres unmarked) [Butoconazole nitrate], the remaining activity at 3.75 µM ([1]; Well no.=2204, high concentration screen) was 93.9% and the remaining activity at 1.25 µM ([2]; Well no.=2204, low concentration screen) was 96.3%.
In the case of `CCCC(=O)OCC[N+](C)(C)C` [Butyrylcholine], the remaining activity at 3.75 µM ([1]; Well no.=1738, high concentration screen) was 100% and the remaining activity at 1.25 µM ([2]; Well no.=1738, low concentration screen) was 103%.
With `CN1C(=O)C(Cc2ccc3ccccc3c2)N=C(c2ccc(O)cc2)c2cc(Cl)ccc21` (centres unmarked) [Bz 423] the remaining activity at 3.75 µM [1] was 93.6% and the remaining activity at 1.25 µM [2] was 96.5%.
`CCCCCCCCCCCCC/C=C/[C@@H](O)[C@H](CO)NC(C)=O` [C2 Ceramide] was tested, and the remaining activity at 3.75 µM ([1]; Well no.=4363, high concentration screen) was 104% and the remaining activity at 1.25 µM ([2]; Well no.=4363, low concentration screen) was 108%.
`CCCCCCCCCCCCCC[C@@H](O)[C@@H](O)[C@@H](CO)NC(C)=O` [C2 Phytoceramide] was tested, and the remaining activity at 3.75 µM ([1]; Well no.=3531, high concentration screen) was 104% and the remaining activity at 1.25 µM ([2]; Well no.=3531, low concentration screen) was 99.2%.
In the case of `CCCCCCCCCCCCC/C=C/[C@@H](O)[C@H](CO)NC(=O)CCCCC` [C6 Ceramide], the remaining activity at 3.75 µM ([1]; Well no.=3123, high concentration screen) was 101% and the remaining activity at 1.25 µM ([2]; Well no.=3123, low concentration screen) was 100%.
Compound `CCCCCCCCCCCCC/C=C/[C@@H](O)[C@H](CO)NC(=O)CCCCCCC` [C8 Ceramide] has a remaining activity at 3.75 µM ([1]; Well no.=4255, high concentration screen) of 99.1% and a remaining activity at 1.25 µM ([2]; Well no.=4255, low concentration screen) of 100%.
